Measured values as given in ChEMBL document CHEMBL1152440, “Discovering potent small molecule inhibitors of cyclophilin A using de novo drug design approach” (J Med Chem, 2009).

Target: Peptidyl-prolyl cis-trans isomerase A (Homo sapiens, UniProt P62937)
Sequence (P62937 whole entry): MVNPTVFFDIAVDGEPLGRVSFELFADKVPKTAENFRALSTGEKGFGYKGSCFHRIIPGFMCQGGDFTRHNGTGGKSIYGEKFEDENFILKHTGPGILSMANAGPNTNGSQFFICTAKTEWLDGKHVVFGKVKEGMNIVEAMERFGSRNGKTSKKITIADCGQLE
Description: Inhibition of peptidyl-prolyl isomerase activity of Cyclophilin A

SMILES | IC50
COc1cccc(F)c1C(=O)NC(=O)NC1c2ccccc2-c2ccccc21 | Not Active
O=C(NC(=O)c1c(F)cccc1OCc1ccccc1)NC1c2ccccc2-c2ccccc21 | Not Active
O=C(NCCc1ccccc1)NC(=O)c1c(O)cccc1O | Not Active
O=C(NC(=O)c1ccccc1)NC1c2ccccc2-c2ccccc21 | Not Active
Cc1ccccc1C(=O)NC(=O)NC1c2ccccc2-c2ccccc21 | Not Active
